Source: US20110212455A1, “METHOD OF SCREENING MATERIAL FOR IMPROVING SKIN FUNCTIONS” (AMOREPACIFIC CORPORATION, priority 2008, published 2011)

What was measured:
MAP17 gene = MAP17 gene expression in human keratinocytes treated with ginsenoside-Re (Q-RT-PCR); type: cell-based; details: ginsenoside-Re 10 uM, 24 hours, vs untreated control, FIG. 5 (A)
Procedure: (§1) Various human keratinocytes were treated with a variety of materials, and change in expression of MAP17 and filaggrin genes were monitored. It was investigated whether ginsenoside-Re, a kind of ginsenoid derived from the fruit of ginseng, regulates the expression of MAP17 and filaggrin genes. Human keratinocytes were purchased from Lonza, Inc. and cultured in KBM-2 medium (Clonetics CC-3103) in a CO2 incubator under a condition of 37° C. and 5% CO2.
(§2) The cultured human keratinocytes without any treatment were used as a control group. For a test group, the human keratinocytes were further cultured for 24 hours after adding ginsenoside-Re (10 uM). Ginsenoside-Re was purchased from Wako (Kanagawa, Japan) and prepared into a solution according to the manufacturer's instructions. […]
(§3) The isolated RNA was purified once more using Qiagen RNeasy kit (Qiagen, Valencia, Calif.) and RNA quality and concentration were verified using Agilent 2100 BioAnalyzer (Agilent Technologies, Santa Clara, Calif., USA). cDNA was synthesized from the isolated RNA using Superscript RT II kit (Invitrogen, Carlsbad, Calif.), and change in gene expression was quantitatively analyzed by means of Q-RT-PCR. Change in the expression pattern of MAP17 (Hs00173779_m1) and filaggrin (Hs00856927_g1) was evaluated using TaqMan® gene expression assay kit (Applied Biosystems, Foster City, Calif.) and is shown in FIG. 5.

filaggrin gene = filaggrin gene expression in human keratinocytes treated with ginsenoside-Re (Q-RT-PCR); type: cell-based; details: ginsenoside-Re 10 uM, 24 hours, vs untreated control, FIG. 5 (B)
Procedure: as §1, §2, §3

CC(C)=CCC[C@](C)(O[C@@H]1O[C@H](CO)[C@@H](O)[C@H](O)[C@H]1O)[C@H]1CC[C@]2(C)[C@@H]1[C@H](O)C[C@@H]1[C@@]3(C)CC[C@H](O)C(C)(C)[C@@H]3[C@@H](O[C@@H]3O[C@H](CO)[C@@H](O)[C@H](O)[C@H]3O[C@@H]3O[C@@H](C)[C@H](O)[C@@H](O)[C@H]3O)C[C@]12C [ginsenoside-Re]
expression of the MAP17 gene in human keratinocytes (MAP17 gene): markedly decreases | expression of the filaggrin gene in human keratinocytes (filaggrin gene): increases
